Test results reported in patent US6924302B2, “Substituted triazole diamine derivatives as kinase inhibitors” (Ortho McNeil Pharmaceutical, Inc., priority 2000, dated 2005).
Like-named read-outs stand apart in the source and are kept apart here.

Columns and labels:
[1] = test system: HeLa cervical adenocarcinoma; assay: Inhibition of Cell Proliferation (14C-thymidine incorporation), HeLa; format: cell-based; settings: Homo sapiens, HeLa cell line
Outline: (§1)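 Scintillation counting of methyl 14C-thymidine taken up into new DNA gives the read-out. Cells (3000-8000/well) had 24 h attachment, 24 h compound treatment, then 24 h more with drug plus 0.2 uCi/well label, all at 37° C under 5% CO2.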

A375 malignant melanoma = assay: Inhibition of Cell Proliferation (14C-thymidine incorporation), A375; format: cell-based; settings: Homo sapiens, A-375, A375 cell line
Outline: as §1

Protein Kinase A = target: T1, Protein Kinase A (Bos taurus, UniProt P00517); assay: Kinase Selectivity Assay Protein Kinase A; format: biochemical, bovine; settings: Kinase Selectivity, Tables 2a-2k; read-out: PKA IC50
T1 construct: purified from bovine heart; purchased Upstate Biotech 14-114; host or cells: bovine heart
Outline: (§2)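 Radiometric Flashplate format: ^33P-γ-ATP transfer to immobilized biotinylated peptide, 1 h, 30° C, 1% DMSO final, enzyme in 50 mM Tris-HCl pH=8.0 + 0.1% BSA. Duplicate 8-point dilution, 100 uM down to 10 pM. IC50 from % inhibition of plate max signal versus log conc.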

[2] = test system: PC-3 prostate adenocarcinoma; assay: Inhibition of Cell Proliferation (14C-thymidine incorporation), PC-3; format: cell-based; settings: Homo sapiens, PC-3 cell line
Experimental: The ability of a test compound to inhibit the proliferation of cell growth was determined by measuring incorporation of ^14C-labelled thymidine into newly synthesized DNA within the cells. This method was used on cell lines derived from carcinomas originating from several tissues such as HeLa cervical adenocarcinoma (American Type Culture Collection (ATCC), Virginia, Cat. #CCL-2), A375 malignant melanoma (ATCC CRL-1619), SK-OV-3 ovarian adenocarcinoma (ATCC HTB-77) HCT-116 colon carcinoma (CCL-247), PC-3 prostate adenocarcinoma (ATCC CRL-1435), and MDA-MB-231 (Xenogen Corp.) In this way the effect of a compound on cell growth of cells with many different phenotypes can be determined. Cells were trypsinized and counted and 3000-8000 cells were added to each well of a 96-well CytoStar tissue culture treated scintillating microplate (Amersham #RPNQ0160) in complete medium in a volume of 100 μl. Cells were incubated for 24 hours in complete medium at 37° C. in an atmosphere containing 5% CO2. Next, 1 μl of test compound in 100% DMSO was added to the wells of the plate. DMSO only was added to control wells. Cells were incubated for 24 more hours in complete medium at 37° C. in an atmosphere containing 5% CO2. Methyl ^14C-thymidine 56 mCi/mmol (NEN #NEC568 or Amersham #CFA532) was diluted in complete medium and 0.2 uCi/well was added to each well of the CytoStar plate in a volume of 20 μl. The plate was incubated for 24 hours at 37° C. plus 5% CO2 in drug plus ^14C-thymidine. The contents of the plate were discarded into a ^14C radioactive waste container by inverting the plate and the plate was washed twice with 200 μl PBS. 200 μl of PBS is added to each well. The top of the plate was sealed with a transparent plate sealer and a white plate backing sealer (Packard #6005199) was applied to the bottom of the plate. The degree of methyl ^14C-thymidine incorporation was quantified on a Packard Top Count.

[3] = target: T2, Glycogen Synthase Kinase-3 (beta isoform) (Oryctolagus cuniculus, UniProt G1T8E2); assay: Kinase Selectivity Assay Glycogen Synthase Kinase-3; format: biochemical, rabbit
T2 construct: purchased New England Biolabs 6040; host or cells: E. coli
T2 sequence (G1T8E2 1-432): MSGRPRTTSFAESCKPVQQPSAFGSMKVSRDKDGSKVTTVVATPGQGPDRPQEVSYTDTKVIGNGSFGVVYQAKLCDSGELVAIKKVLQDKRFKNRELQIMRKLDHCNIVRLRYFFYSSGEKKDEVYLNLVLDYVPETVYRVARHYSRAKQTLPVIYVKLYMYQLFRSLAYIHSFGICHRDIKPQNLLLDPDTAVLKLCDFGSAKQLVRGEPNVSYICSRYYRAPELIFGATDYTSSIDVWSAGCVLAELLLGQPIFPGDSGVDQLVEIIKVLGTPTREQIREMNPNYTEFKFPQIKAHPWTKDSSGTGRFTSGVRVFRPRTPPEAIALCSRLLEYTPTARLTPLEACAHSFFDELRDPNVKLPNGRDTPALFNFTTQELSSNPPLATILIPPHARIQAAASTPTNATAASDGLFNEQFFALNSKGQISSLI
Outline: as §2

[4] = target: T3, PDGF-R (platelet derived growth factor receptor) beta subunit kinase domain (Homo sapiens, UniProt P09619); assay: Kinase Selectivity Assay PDGF-R; format: biochemical; settings: Kinase Selectivity, Tables 2a-2k; read-out: PDGF-R kinase IC50
T3 construct: nucleotides 1874-3507 of the human PDGF-R beta subunit kinase domain; polyhistidine (N)
T3 sequence (P09619 564-1106): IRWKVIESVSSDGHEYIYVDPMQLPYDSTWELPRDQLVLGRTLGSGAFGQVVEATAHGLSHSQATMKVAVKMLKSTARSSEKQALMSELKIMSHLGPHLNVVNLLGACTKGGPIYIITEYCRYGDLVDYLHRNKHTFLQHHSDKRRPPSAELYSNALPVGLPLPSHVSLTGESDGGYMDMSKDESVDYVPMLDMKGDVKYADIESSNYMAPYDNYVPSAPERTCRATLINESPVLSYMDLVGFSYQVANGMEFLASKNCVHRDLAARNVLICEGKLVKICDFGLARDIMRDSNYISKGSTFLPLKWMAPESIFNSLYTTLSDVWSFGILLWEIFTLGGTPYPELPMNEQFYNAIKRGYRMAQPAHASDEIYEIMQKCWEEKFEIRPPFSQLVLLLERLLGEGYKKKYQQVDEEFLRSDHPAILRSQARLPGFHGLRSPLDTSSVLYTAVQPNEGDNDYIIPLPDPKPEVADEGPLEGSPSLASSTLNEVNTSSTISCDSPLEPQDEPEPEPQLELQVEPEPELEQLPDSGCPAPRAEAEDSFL
Outline: as §2

[5] = target: T4, VEGF-R (vascular endothelial growth factor receptor-2) (Rattus norvegicus, UniProt O08775); assay: VEGF-R Screening Assay; format: biochemical; settings: read-out: VEGF-R IC50
T4 construct: polyhistidine (6xHIS) (N)
T4 sequence (O08775 786-1343): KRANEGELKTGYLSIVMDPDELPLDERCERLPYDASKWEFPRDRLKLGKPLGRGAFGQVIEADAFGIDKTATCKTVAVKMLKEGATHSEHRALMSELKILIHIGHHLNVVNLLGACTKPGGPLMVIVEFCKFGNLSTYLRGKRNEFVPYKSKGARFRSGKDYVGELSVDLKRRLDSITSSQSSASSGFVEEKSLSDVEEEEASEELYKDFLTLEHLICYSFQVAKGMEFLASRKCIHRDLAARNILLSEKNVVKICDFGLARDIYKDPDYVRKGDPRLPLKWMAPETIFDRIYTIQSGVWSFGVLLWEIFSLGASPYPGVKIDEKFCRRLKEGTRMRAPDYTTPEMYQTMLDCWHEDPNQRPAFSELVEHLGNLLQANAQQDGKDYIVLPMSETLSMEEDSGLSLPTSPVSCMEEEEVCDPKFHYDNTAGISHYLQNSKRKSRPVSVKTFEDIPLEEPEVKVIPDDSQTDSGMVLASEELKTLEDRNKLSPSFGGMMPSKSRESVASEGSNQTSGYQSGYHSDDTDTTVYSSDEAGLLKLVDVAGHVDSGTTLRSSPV

[6] = target: T5, MAP Kinase (ERK-2 isoform) (Rattus norvegicus, UniProt P63086); assay: Kinase Selectivity Assay MAP Kinase (ERK-2); format: biochemical; settings: Kinase Selectivity, Tables 2a-2k; read-out: ERK 2 IC50
T5 construct: polyhistidine (N); host or cells: E. coli
T5 sequence (P63086 whole entry, canonical isoform): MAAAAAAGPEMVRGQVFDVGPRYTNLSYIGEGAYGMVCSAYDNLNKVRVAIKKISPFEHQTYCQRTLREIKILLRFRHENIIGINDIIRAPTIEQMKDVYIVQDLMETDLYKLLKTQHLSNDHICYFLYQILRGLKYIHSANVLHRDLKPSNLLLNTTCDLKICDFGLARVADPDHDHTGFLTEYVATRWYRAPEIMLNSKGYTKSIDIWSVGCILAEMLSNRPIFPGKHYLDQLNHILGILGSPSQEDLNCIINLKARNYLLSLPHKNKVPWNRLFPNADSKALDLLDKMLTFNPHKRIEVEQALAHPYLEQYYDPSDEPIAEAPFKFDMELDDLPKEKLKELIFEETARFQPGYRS
Outline: as §2

[7] = Kinase Selectivity, Tables 2a-2k
[8] = Kinase Selectivity, Tables 2a-2k, read-out: GSK-3 IC50

Structure (SMILES) | IC50 [1] [nM] | IC50 (A375 malignant melanoma) [nM] | IC50 (Protein Kinase A) [µM] | IC50 [2] [nM] | IC50 [3] [nM] | IC50 [4] [nM] | IC50 [5, 7] [nM] | IC50 ([5]; Table 1) [nM] | IC50 [6] [µM] | IC50 [3, 8] [nM]
Nc1nc(Nc2ccc(S(N)(=O)=O)cc2)nn1C(=O)c1c(F)cccc1F [Cpd 1, 4-[[5-amino-1-(2,6-difluorobenzoyl)-1H-1,2,4-triazol-3-yl]amino]-benzenesulfonamide] | 284 | 447 | > 100 | 119 | 41 | – | – | – | – | –
Nc1nc(Nc2ccc(S(N)(=O)=O)cc2)nn1C(=O)c1cccs1 [Cpd 14, 4-[[5-amino-1-(2-thienylcarbonyl)-1H-1,2,4-triazol-3-yl]amino]-benzenesulfonamide] | 550 | 26500 | 5.43 | 157 | – | 189 | 26 | 26.7 | 2.14 | 3
Nc1nc(Nc2ccc(S(N)(=O)=O)cc2)nn1C(=O)c1sccc1F [Cpd 16, 4-[[5-amino-1-[(3-fluoro-2-thienyl)carbonyl]-1H-1,2,4-triazol-3-yl]amino]-benzenesulfonamide] | 263 | 942 | – | 368 | – | 100 | 13.7 | 13.7 | 0.39 | 4
Nc1nc(Nc2ccc(S(N)(=O)=O)cc2)nn1C(=O)c1sccc1Cl [Cpd 17, 4-[[5-amino-1-[(3-chloro-2-thienyl)carbonyl]-1H-1,2,4-triazol-3-yl]amino]-benzenesulfonamide] | 215 | 4970 | – | 294 | – | 81 | 27 | 27 | 1.87 | 9
Nc1nc(Nc2ccc(S(=O)(=O)N3CCCCC3)cc2)nn1C(=O)c1cccs1 [Cpd 23, N^3-[4-(1-piperidinylsulfonyl)phenyl]-1-(2-thienylcarbonyl)-1H-1,2,4-triazole-3,5-diamine] | 1180 | 424 | > 100 | 859 | – | 629 | 35 | 35.3 | 1.62 | 16
Nc1nc(Nc2ccc(S(N)(=O)=O)cc2)nn1C(=O)c1ccsc1 [Cpd 30, 4-[[5-amino-1-(3-thienylcarbonyl)-1H-1,2,4-triazol-3-yl]amino]-benzenesulfonamide] | 215 | 8240 | – | 951 | – | 392 | 40.6 | 40.6 | 5.93 | 14
CC(C)(C)c1ccc(C(=O)n2nc(Nc3ccc(S(N)(=O)=O)cc3)nc2N)s1 [Cpd 51, 4-[[5-amino-1-[[5-(1,1-dimethylethyl)-2-thienyl]carbonyl]-1H-1,2,4-triazol-3-yl]amino]-benzenesulfonamide] | 220 | 333 | 0.911 | 57 | – | 199 | 19 | 19 | 0.928 | 20
CC(O)c1ccc(F)c(C(=O)n2nc(Nc3ccc(S(N)(=O)=O)cc3)nc2N)c1F (centres unmarked) [Cpd 58, 4-[[5-amino-1-[2,6-difluoro-3-(1-hydroxyethyl)benzoyl]-1H-1,2,4-triazol-3-yl]amino]-benzenesulfonamide] | 186 | 981 | > 100 | 362 | – | 8530 | 419 | 420 | 10.7 | 15
Cc1ccc(F)c(C(=O)n2nc(Nc3ccc(S(N)(=O)=O)cc3)nc2N)c1Cl [Cpd 69, 4-[[5-amino-1-(2-chloro-6-fluoro-3-methylbenzoyl)-1H-1,2,4-triazol-3-yl]amino]-benzenesulfonamide] | 218 | 441 | 46.6 | 8 | – | 100 | – | – | 12.5 | 147
Nc1nc(Nc2ccc(S(N)(=O)=O)cc2)nn1C(=O)c1c(F)cccc1Cl [Cpd 70, 4-[[5-amino-1-(2-chloro-6-fluorobenzoyl)-1H-1,2,4-triazol-3-yl]amino]-benzenesulfonamide] | 196 | 1100 | 34.2 | 11 | – | 16200 | – | – | 19.4 | 220
CNS(=O)(=O)c1ccc(Nc2nc(N)n(C(=O)c3c(F)ccc(C)c3F)n2)cc1 [Cpd 81, 4-[[5-amino-1-(2,6-difluoro-3-methylbenzoyl)-1H-1,2,4-triazol-3-yl]amino]-N-methyl-benzenesulfonamide] | 189 | 1770 | > 100 | 25 | – | 7760 | – | – | 11.7 | 49
